# Data: patent publication US11661439B2, “Peptide hydrogels and use thereof” (The United States of America, as represented by the …, priority 2017, dated 2023)
# Non-standard residues stand in square brackets, D forms with d. Residues, ends and D or L forms follow the SMILES beside them.
# Tests used:
# [1] = TEM analysis of peptide fibrils; type: physicochemical; conditions: 30 independent measurements
# Description: FIG. 4. Fibril visualization of β-hairpin peptide hydrogels. Transmission Electron Microscopy (TEM) images of peptide fibrils and frequency distributions determined from 30 independent measurements (scale bar=100 nm).
# Transmission electron microscopy (TEM) analysis. The hydrogel nanostructure of the peptide gels was observed using a Hitachi H-7650 transmission electron microscope at a voltage of 80 kV. A 1 wt % solution of peptide and an equal volume of buffer (50 mM HEPES containing 300 mM NaCl, pH 7.4) was mixed and incubated overnight at 37° C. to allow for gelation. The next day, samples for TEM analysis were prepared by suspending 5 μL of the resulting peptide gel in 195 μL of water to yield a 40-fold dilution. Small amounts (5 μL) of each diluted gel solution were applied to separate carbon coated copper grids. After 1 min, the grid was washed with water. Then, a 1 w/v % uranyl acetate aqueous solution was placed on each grid for negative staining. Excess staining solution was blotted away, left to air dry, and the grids were imaged immediately.
# [2] = test system: human dermal fibroblasts (HDFs); experiment: 2D cell culture of HDFs on gel surfaces; type: cell-based; conditions: for cell adhesion of HDFs on gel surface: Essential 8 Medium or serum-free DMEM
# Description: 2D cell culture on peptide gels. Peptides were initially dissolved in water at 1 wt % on ice and mixed with an equal volume of ice-cold 2×HEPES buffer (50 mM HEPES, 300 mM NaCl, pH 7.4). The peptide solution (50 μL per well) was transferred to a non-tissue culture treated 96-well plates and incubated at 37° C. to initiate gelation. After 1 hour, HDFs (2×10^4 cells per 200 μL, per well) in serum-free DMEM, 10% FBS supplemented DMEM, or Essential 8 Medium (Thermo Fisher Scientific) were seeded on the peptide gels and cultured for 4 days. Bovine type I collagen gels (0.3 wt %, 50 μL per well) were prepared in 96-well plates following manufacturer's instructions.
# Cell viability assay. Cell viability was evaluated by live and dead cell staining after 2D and 3D cell culture. Serum-free DMEM containing 1 μM calcein-AM and 2 μM ethidium homodimer-1 was added to the cells (200 μL per well for 2D culture and 500 μL each to the top and bottom of the gels for 3D culture). After incubation at 37° C. for 30 min, live and dead cells were visualized using EVOS FL Auto Cell Imaging System (Thermo Fisher Scientific). For the pseudo-colored composite image of varying heights of encapsulated cells, images of the live-stained cells were captured every 5 μm of height. Then Z-stack images for each 100 μm were flattened using the EVOS software, and the flattened images were pseudo-colored and merged using ImageJ.
# Cell proliferation assay. A cell proliferation assay was performed using Cell Counting Kit-8 (CCK-8, Dojindo Molecular Technologies) for 2D and 3D cell culture. Serum-free DMEM containing 10% CCK-8 was added to the gels (200 μL per well for 2D culture; 500 μL to the top of the gels for 3D culture) and incubated for 2 hours at 37° C. Subsequently, media were transferred to 96-well plates (150 μL per well) and their absorbance measured at 450 nm relative to control viabilities from day 0 for 2D cell culture and day 1 for 3D cell culture. Experiments were performed in triplicate.
# Cytoskeleton staining. For 2D cell culture, the peptide and collagen gels (70 μL) were prepared as described above on the glass bottom of 35 mm dishes (7 mm glass diameter, MatTek). HDFs in Essential 8 Medium (1.5×10^5 cells per 3 mL) were added to the dishes and incubated at 37° C. for 24 hours. Cells were fixed and permeabilized with 4% paraformaldehyde and 0.1% Triton X-100 in PBS for 15 min, and then blocked with 1% BSA in PBS. Cells were incubated with anti-vinculin antibody (hVIN-1, Sigma) for 1 hour at room temperature. Then, a goat anti-mouse IgG (H+L) cross-adsorbed secondary antibody, Rhodamine Red-X (2 μg mL^−1, Thermo Fisher Scientific), Alexa Fluor 488 phalloidin (5 units mL^−1, Thermo Fisher Scientific), and Hoechst 33342 (5 μg mL^−1, Invitrogen) in PBS were added to the dishes and incubated for 1 hour at room temperature. After washing, cells were visualized using an EVOS FL Auto Cell Imaging System.
# [3] = test system: RFP-HDFs; experiment: Hydrogel-based in vivo cell delivery with RFP fluorescence imaging; design: species or system athymic nude mice
# Excerpt: In vivo studies. Six- to eight-week-old non-tumor bearing female athymic nude mice were used for this experiment (n=3). Animal care was in accordance with the procedures outlined in the Guide for Care and Use of Laboratory Animals (National Research Council, 1996; National Academy Press, Washington, D.C.) and animal protocols were approved by the Frederick National Laboratory for Cancer Research (FNLCR) Institutional Animal Care and Use Committee.
# Hydrogel-based in vivo cell transplantation. RFP-HDFs were encapsulated in 0.5 wt % AcVES3-RGDV at 10^7 cells mL^−1 as described in the 3D cell culture section. After gelation, the cell-peptide gel (10^6 cells per 100 μL) was injected into the left dorsal region of the mouse and as a control, RFP-HDF suspension in serum-free DMEM (10^6 cells per 100 μL) was injected into the right dorsal region of the mouse.
# In vivo fluorescence imaging. Multispectral fluorescence imaging was performed daily (Monday-Friday) for 42 days using a Maestro Flex imager (PerkinElmer). Briefly, mice were anesthetized for 3-4 minutes in an induction chamber with 3% isoflurane with filtered air (0.2 μm filter) used as a carrier at a flow rate of 1 liter per minute. After isoflurane induction, the mice were transferred to an imaging chamber, where isoflurane was reduced to 2% and O2 was used as a carrier. The imaging platform was kept at 37° C. to maintain the mouse's internal temperature. Image acquisition (Maestro software, ver. 2.10.0) of the RFP fluorescence signal utilized a 533±26 nm excitation filter (placed in front of the 300 W xenon excitation source), a 580 nm long-pass filter (placed in front of the CCD) and implementing a multispectral imaging acquisition of 550-720 nm range, 10 nm increment, auto exposure (typically 0.5-5 seconds per emission wavelength), with a 2×2 pixel binning, resulting in a stack of images (image cube). RFP signal was distinguished from the tissue autofluorescence by employing vendor specified unmixing protocol. Quantitative analysis was performed by drawing a standard circular region of interest (ROI) over the injection site of the unmixed RFP component image. The total RFP signal (scaled counts second^−1) within each ROI was measured and plotted as a function of time.
# Collection of RFP-HDFs from the tissue graft. After in vivo imaging on day 42, mice were euthanized using CO2 and ex vivo images (Maestro Software) were acquired by exposing the cell-peptide gel injection site. Image acquisition and processing were performed with the same parameters as performed for in vivo imaging as stated above. Utilizing the unmixed RFP image to guide resecting the RFP-positive tissue, the RFP positive cells were resected and then homogenized by squeezing them through a cell strainer. The collected cells were then cultured on a tissue culture plate with FBS-supplemented DMEM for 10 days and observed using an EVOS FL Auto Cell Imaging System.
smiles,measurement,setting,value
CC(=O)N[C@H](C(=O)N[C@@H](CCC(=O)O)C(=O)N[C@H](C(=O)N[C@@H](CO)C(=O)N[C@H](C(=O)N[C@@H](CO)C(=O)N[C@H](C(=O)N[C@@H](CCC(=O)O)C(=O)N[C@H](C(=O)N1CCC[C@@H]1C(=O)N1CCC[C@H]1C(=O)N[C@H](C(=O)N[C@@H](CCC(=O)O)C(=O)N[C@H](C(=O)N[C@@H](CO)C(=O)N[C@H](C(=O)N[C@@H](CCC(=O)O)C(=O)N[C@H](C(=O)N[C@@H](CCC(=O)O)C(=O)N[C@H](C(=O)NCC(=O)NCC(=O)NCC(=O)NCC(=O)N[C@@H](CCCNC(=N)N)C(=O)NCC(=O)N[C@@H](CC(=O)O)C(=O)N[C@H](C(N)=O)C(C)C)C(C)C)C(C)C)C(C)C)C(C)C)[C@@H](C)O)C(C)C)C(C)C)C(C)C)C(C)C)C(C)C [AcVES3-RGDV] (Ac-VEVSVSVEV[dP]PTEVSVEVEVGGGGRGDV-NH2),average fibril width,[1],4.0±0.4 nm
same,"cell proliferation of HDFs, 2D culture","[2]; Essential 8 Medium, up to day 4",proliferated to a similar degree as cells on collagen gels
same,cytoskeleton organization and focal adhesions,"[2]; day 1, Essential 8 Medium",promoted organization of actin stress fibers and focal contacts
same,cell adhesion of HDFs on gel surface,[2]; day 1,strongly attached and spread
same,cell adhesion of HDFs on gel surface,[2]; day 4,remained adherent and viable
same,retention of cells after initial injection,[3]; 10^6 RFP-HDFs per 100 μL gel,over 40 days
same,slowing of dissipation of injected cells versus cell suspension control,"[3]; 10^6 RFP-HDFs per 100 μL, dorsal injection, from slopes of the lines",~6 fold
same,RFP signal still detected at injection site,[3]; day 42,approximately 2%
same,inflammation around the injection site,"[3]; day 42, dissected subcutaneous tissue",no apparent inflammation
same,"localization, retention and engraftment of delivered cells","[3]; mouse, in vivo",dramatically enhance localization and retention of the delivered cells and also support engraftment
